Results taken from patent US8735322B2, “Herbicides” (Syngenta Limited, priority 2008, dated 2014).

Columns and labels:
Assay type in all cases: in vivo
[1] = test system: Alopecurus myosuroides (ALOMY); assay: Example B post-emergence herbicidal activity, glasshouse pot test; settings: 312 h, rate 1000 g/ha, evaluated after 13 days, read-out: herbicidal damage ALOMY (100=total damage to plant; 0=no damage to plant)
Description: (§1) Seeds of a variety of test species were sown in standard soil in pots. After cultivation for one day (pre-emergence) or after 8 days cultivation (post-emergence) under controlled conditions in a glasshouse (at 24/16° C., day/night; 14 hours light; 65% humidity), the plants were sprayed with an aqueous spray solution derived from the formulation of the technical active ingredient in acetone/water (50:50) solution containing 0.5% Tween 20 (polyoxyethelyene sorbitan monolaurate, CAS RN 9005-64-5). The test plants were then grown in a glasshouse under controlled conditions in a glasshouse (at 24/16° C., day/night; 14 hours light; 65% humidity) and watered twice daily. After 13 days for pre and post-emergence, the test was evaluated (100=total damage to plant; 0=no damage to plant). Alopecurus myosuroides (ALOMY), Avena fatua (AVEFA), Setaria faberi (SETFA), Echinochloa crus-galli (ECHCG), Solanum nigrum (SOLNI) and Amaranthus retroflexus (AMARE) Post-Emergence Activity

Setaria faberi (SETFA) [2] = assay: as above; settings: 312 h, rate 1000 g/ha, evaluated after 13 days, read-out: herbicidal damage SETFA (100=total damage to plant; 0=no damage to plant)
Description: as §1

[3] = test system: Echinochloa crus-galli (ECHCG); assay: as above; settings: 312 h, rate 1000 g/ha, evaluated after 13 days, read-out: herbicidal damage ECHCG (100=total damage to plant; 0=no damage to plant)
Description: as §1

Solanum nigrum (SOLNI) [4] = assay: as above; settings: 312 h, rate 1000 g/ha, evaluated after 13 days, read-out: herbicidal damage SOLNI (100=total damage to plant; 0=no damage to plant)
Description: as §1

[5] = test system: Amaranthus retroflexus (AMARE); assay: as above; settings: 312 h, rate 1000 g/ha, evaluated after 13 days, read-out: herbicidal damage AMARE (100=total damage to plant; 0=no damage to plant)
Description: as §1

Avena fatua (AVEFA) [6] = assay: as above; settings: 312 h, rate 1000 g/ha, evaluated after 13 days, read-out: herbicidal damage AVEFA (100=total damage to plant; 0=no damage to plant)
Description: as §1

[7] = test system: Alopecurus myosuroides (ALOMY); assay: Example B pre-emergence herbicidal activity, glasshouse pot test; settings: 312 h, rate 1000 g/ha, evaluated after 13 days, read-out: herbicidal damage ALOMY (100=total damage to plant; 0=no damage to plant)
Description: as §1, with “Pre-Emergence” for “Post-Emergence”

Setaria faberi (SETFA) [8] = assay: as above; settings: 312 h, rate 1000 g/ha, evaluated after 13 days, read-out: herbicidal damage SETFA (100=total damage to plant; 0=no damage to plant)
Description: as §1, with “Pre-Emergence” for “Post-Emergence”

[9] = test system: Echinochloa crus-galli (ECHCG); assay: as above; settings: 312 h, rate 1000 g/ha, evaluated after 13 days, read-out: herbicidal damage ECHCG (100=total damage to plant; 0=no damage to plant)
Description: as §1, with “Pre-Emergence” for “Post-Emergence”

Solanum nigrum (SOLNI) [10] = assay: as above; settings: 312 h, rate 1000 g/ha, evaluated after 13 days, read-out: herbicidal damage SOLNI (100=total damage to plant; 0=no damage to plant)
Description: as §1, with “Pre-Emergence” for “Post-Emergence”

[11] = test system: Amaranthus retroflexus (AMARE); assay: as above; settings: 312 h, rate 1000 g/ha, evaluated after 13 days, read-out: herbicidal damage AMARE (100=total damage to plant; 0=no damage to plant)
Description: as §1, with “Pre-Emergence” for “Post-Emergence”

Avena fatua (AVEFA) [12] = assay: as above; settings: 312 h, rate 1000 g/ha, evaluated after 13 days, read-out: herbicidal damage AVEFA (100=total damage to plant; 0=no damage to plant)
Description: as §1, with “Pre-Emergence” for “Post-Emergence”

Structure (SMILES)	pest or weed control at 1000 g/ha [1]	pest or weed control at 1000 g/ha (Setaria faberi (SETFA) [2])	pest or weed control at 1000 g/ha [3]	pest or weed control at 1000 g/ha (Solanum nigrum (SOLNI) [4])	pest or weed control at 1000 g/ha [5]	pest or weed control at 1000 g/ha (Avena fatua (AVEFA) [6])	pest or weed control at 1000 g/ha [7]	pest or weed control at 1000 g/ha (Setaria faberi (SETFA) [8])	pest or weed control at 1000 g/ha [9]	pest or weed control at 1000 g/ha (Solanum nigrum (SOLNI) [10])	pest or weed control at 1000 g/ha [11]	pest or weed control at 1000 g/ha (Avena fatua (AVEFA) [12])
Cc1ccc(-c2cccnc2OCC2CC2)cc1C1=C(O)CC(CC2CCOCC2)CC1=O (stereo not drawn) [Compound A-27]	10%	60%	30%	0%	0%	0%	0%	0%	0%	0%	0%	0%
Cc1ccc(-c2ccc(OC(F)(F)F)cc2)cc1C1=C(O)CC(CC2CCOCC2)CC1=O (stereo not drawn) [Compound A-29]	10%	60%	60%	20%	70%	0%	20%	0%	20%	30%	50%	0%
CCc1cc(-c2ccc(C)cc2)cc(CC)c1C1=C(O)CC(CC2CCOCC2)CC1=O (stereo not drawn) [Compound A-33]	30%	80%	100%	70%	60%	70%	50%	100%	90%	0%	0%	60%
CCc1cc(-c2ccc(Cl)cc2)cc(CC)c1C1=C(O)CC(CC2CCOCC2)CC1=O (stereo not drawn) [Compound A-34]	50%	90%	100%	0%	20%	100%	50%	90%	100%	0%	0%	60%
Cc1ccc(-c2cc(C)c(C3=C(O)CC(CC4CCOCC4)CC3=O)c(C)c2)cc1 (stereo not drawn) [Compound A-36]	70%	100%	100%	50%	0%	70%	60%	100%	90%	0%	0%	40%
Cc1cc(-c2ccc(Cl)cc2)cc(C)c1C1=C(O)CC(CC2CCOCC2)CC1=O (stereo not drawn) [Compound A-37]	90%	100%	100%	70%	40%	100%	80%	100%	100%	20%	20%	90%
Cc1cc(-c2ccc(C(F)(F)F)cc2)cc(C)c1C1=C(O)CC(CC2CCOCC2)CC1=O (stereo not drawn) [Compound A-38]	30%	100%	90%	20%	0%	40%	30%	100%	100%	0%	0%	20%
Cc1ccc(-c2ccc(F)cc2)cc1C1=C(O)CC(CC2CCOCC2)CC1=O (stereo not drawn) [Compound A-39]	60%	90%	80%	0%	0%	80%	0%	0%	0%	0%	0%	0%
Cc1ccc(-c2ccc(F)c(F)c2)cc1C1=C(O)CC(CC2CCOCC2)CC1=O (stereo not drawn) [Compound A-40]	70%	90%	100%	0%	30%	70%	0%	0%	30%	0%	0%	0%
Cc1cc(-c2ccccc2)cc(C)c1C1=C(O)CC(CC2CCOCC2)CC1=O (stereo not drawn) [Compound A-41]	90%	100%	100%	40%	40%	70%	90%	100%	100%	0%	0%	80%
CCc1ccc(-c2ccc(Cl)cc2)cc1C1=C(O)CC(CC2OCCO2)CC1=O (stereo not drawn) [Compound A-45]	100%	100%	100%	10%	0%	100%	60%	90%	100%	100%	0%	70%
Cc1ccc(-c2ccc(Cl)cc2)cc1C1=C(O)CC(CC2OCCO2)CC1=O (stereo not drawn) [Compound A-46, 2-(4′-Chloro-4-methylbiphenyl-3-yl)-5-[1,3]dioxolan-2-ylmethylcyclohexane-1,3-dione]	90%	90%	100%	20%	20%	80%	20%	90%	40%	0%	0%	40%
Cc1cc(-c2ccc(C)c(C3=C(O)CC(CC4CCOCC4)CC3=O)c2)ccc1F (stereo not drawn) [Compound A-48]	60%	80%	80%	0%	10%	60%	0%	20%	20%	0%	0%	0%
